ChEMBL document CHEMBL5303304, “EUbOPEN Chemogenomics Library - IncuCyte” (2023)

Assays:
Assay type in all cases: toxicity, cell-based
HEK-293T = assay: Incucyte cell viability with HEK293T; conditions: human, 10 µM, compound concentration 10 uM
U2OS = assay: Incucyte cell viability with U2OS; conditions: human, 10 µM, compound concentration 10 uM
Fibroblast = assay: Incucyte cell viability with human fibroblast; conditions: 10 µM, compound concentration 10 uM
Note: unitless GR value; below 1 slowed growth and below 0 cell loss.

| SMILES | Growth Rate (HEK-293T; 0 h, replicate number 2) | Growth Rate (HEK-293T; 6 h, replicate number 1) | Growth Rate (HEK-293T; 12 h, replicate number 1) | Growth Rate (HEK-293T; 18 h, replicate number 1) | Growth Rate (HEK-293T; 24 h, replicate number 1) | Growth Rate (U2OS; 0 h, replicate number 2) | Growth Rate (U2OS; 12 h, replicate number 2) | Growth Rate (U2OS; 18 h, replicate number 1) | Growth Rate (U2OS; 18 h, replicate number 2) | Growth Rate (U2OS; 24 h, replicate number 1) | Growth Rate (U2OS; 24 h, replicate number 2) | Growth Rate (Fibroblast; 0 h, replicate number 2) | Growth Rate (Fibroblast; 12 h, replicate number 2) | Growth Rate (Fibroblast; 18 h, replicate number 1) | Growth Rate (Fibroblast; 18 h, replicate number 2) | Growth Rate (Fibroblast; 24 h, replicate number 1) | Growth Rate (Fibroblast; 24 h, replicate number 2) | Growth Rate (U2OS; 6 h, replicate number 1) | Growth Rate (Fibroblast; 6 h, replicate number 1) | Growth Rate (U2OS; 6 h, replicate number 2) | other results |
| --- | --- | --- | --- | --- | --- | --- | --- | --- | --- | --- | --- | --- | --- | --- | --- | --- | --- | --- | --- | --- | --- |
| CCCCNc1ncc2c(-c3ccc(CN4CCN(C)CC4)cc3)cn([C@H]3CC[C@H](O)CC3)c2n1 | 0.42 | -0.33 | -0.54 | -0.43 | -0.3 | 0.17 | 0.4 | 0.13 | -0.13 | -0.14 | -0.3 | -0.9 | 0.3 | -0.08 | -0.25 | -0.18 | -0.33 | – | – | – | Growth Rate (HEK-293T; 6 h, replicate number 2): -0.21; Growth Rate (HEK-293T; 12 h, replicate number 2): -0.55; Growth Rate (HEK-293T; 18 h, replicate number 2): -0.41; Growth Rate (HEK-293T; 24 h, replicate number 2): -0.28; Growth Rate (Fibroblast; 12 h, replicate number 1): 0.6 |
| CC(C)c1nc2c(c3c1[C@H](c1ccc(C(F)(F)F)cc1)OC31CCOCC1)[C@H](O)CC(C)(C)C2 | -0.1 | -0.63 | 0.02 | 0.41 | 0.62 | – | 0.84 | 0.93 | – | 0.88 | – | – | -0.47 | -0.17 | -0.05 | 0.08 | 0.1 | 0.38 | -0.78 | – | Growth Rate (HEK-293T; 18 h, replicate number 2): 0.84; Growth Rate (HEK-293T; 24 h, replicate number 2): 0.94; Growth Rate (U2OS; 0 h, replicate number 1): -0.17; Growth Rate (U2OS; 12 h, replicate number 1): 0.82; Growth Rate (Fibroblast; 0 h, replicate number 1): -1; Growth Rate (Fibroblast; 6 h, replicate number 2): -0.98; Growth Rate (Fibroblast; 12 h, replicate number 1): -0.62 |
| Nc1nc(-c2nn(Cc3ccccc3F)c3ncccc23)ncc1C1CC1 | 0.14 | – | – | – | – | – | – | – | 0.87 | 0.68 | 0.71 | -0.93 | – | 0.69 | – | 0.73 | 0.8 | 0.69 | 0.35 | – | – |
| O=C([O-])c1cc2cc(Cc3cccnc3)ccc2o1.[Na+] | 0.2 | 0.1 | 0.56 | – | – | – | 0.98 | 1 | – | 0.71 | – | – | 0.64 | – | – | – | – | 0.77 | 0.42 | – | Growth Rate (HEK-293T; 6 h, replicate number 2): 0.83; Growth Rate (U2OS; 0 h, replicate number 1): -0.13; Growth Rate (U2OS; 12 h, replicate number 1): 0.4 |
| O=C(Nc1ccc(N2CCC(C(=O)N3CCOCC3)CC2)cc1)c1cnc(Oc2ccccc2)nc1 | -0.09 | -0.02 | 0.64 | 0.92 | 0.95 | – | – | – | – | – | – | -0.91 | 0.75 | 0.95 | 0.87 | 0.99 | 0.78 | 0.96 | 0.98 | – | – |
| CCOC(=O)CS(=O)(=O)c1ccc([C@@H](CO)NC(=O)c2cc3c(Cl)c(Cl)c(C)cc3n2C)cc1 | 0.13 | – | – | – | – | – | 0.52 | -0.31 | 0.87 | -0.16 | 0.97 | – | -0.95 | -0.91 | -0.85 | -0.81 | -0.7 | -0.2 | – | 1 | Growth Rate (U2OS; 0 h, replicate number 1): -0.21; Growth Rate (U2OS; 12 h, replicate number 1): -0.25; Growth Rate (Fibroblast; 0 h, replicate number 1): -1; Growth Rate (Fibroblast; 6 h, replicate number 2): -1; Growth Rate (Fibroblast; 12 h, replicate number 1): -0.98 |
| CC(C)Oc1ccc(F)c(-c2cnc(N)c(C(=O)Nc3cnccc3N3CCC[C@@H](C(=O)O)C3)n2)c1 | 0.37 | – | -0.19 | -0.11 | -0.01 | -0.44 | – | – | – | 0.84 | – | – | – | – | 0.97 | – | 0.61 | – | -1 | – | Growth Rate (HEK-293T; 6 h, replicate number 2): 0.61; Growth Rate (HEK-293T; 12 h, replicate number 2): -0.28; Growth Rate (HEK-293T; 18 h, replicate number 2): -0.06; Growth Rate (HEK-293T; 24 h, replicate number 2): 0.05; Growth Rate (Fibroblast; 0 h, replicate number 1): 0.44 |
| CC1(C)Oc2ncnc(N)c2N=C1c1ccc([C@H]2CC[C@H](CC(=O)O)CC2)cc1 | -0.22 | 0.77 | – | 0.89 | 0.94 | -0.4 | 0.89 | 0.85 | – | 0.96 | – | -0.9 | – | – | – | – | 0.97 | 0.57 | 0.56 | 0.92 | Growth Rate (HEK-293T; 6 h, replicate number 2): 0.36; Growth Rate (HEK-293T; 24 h, replicate number 2): 0.99; Growth Rate (U2OS; 0 h, replicate number 1): 0.58; Growth Rate (Fibroblast; 0 h, replicate number 1): -0.99; Growth Rate (Fibroblast; 12 h, replicate number 1): 0.81 |
| O=C1CCC(N2Cc3cc(CNC(=O)C(F)(F)c4ccc(Cl)cc4)ccc3C2=O)C(=O)N1 (stereo not drawn) | 0.81 | – | 0.83 | 0.81 | 0.89 | 0.39 | 0.98 | – | – | 0.99 | 0.85 | – | 0.51 | – | 0.98 | – | 0.99 | 0.81 | – | 0.89 | Growth Rate (HEK-293T; 18 h, replicate number 2): 1; Growth Rate (U2OS; 12 h, replicate number 1): 0.97 |
| CCCCC/C=C/C=C1/C(=O)C=C[C@@H]1C/C=C\CCCC(=O)O | -0.01 | – | 0.88 | 0.89 | 0.86 | -0.2 | 0.62 | 0.74 | 0.7 | 0.68 | 0.85 | -0.86 | 0.93 | 0.94 | 0.89 | 0.72 | 0.7 | – | 0.99 | 0.82 | Growth Rate (HEK-293T; 12 h, replicate number 2): 0.95; Growth Rate (HEK-293T; 18 h, replicate number 2): 0.98; Growth Rate (HEK-293T; 24 h, replicate number 2): 0.94 |
| CO[C@H](C)CN1CC[C@]2(C)c3cccc(O)c3C[C@H]1C2(C)C.Cl | -0.19 | – | – | – | – | -0.73 | 0.71 | 0.92 | 0.84 | 0.84 | 0.92 | -0.48 | – | – | – | 0.9 | – | 0.44 | – | 0.57 | Growth Rate (U2OS; 12 h, replicate number 1): 0.7; Growth Rate (Fibroblast; 0 h, replicate number 1): -1 |
| Cc1cc(CN)cc(C)c1-c1ncn(C)c1-c1ccnc2cc(F)ccc12.Cl | 0.04 | 0.92 | – | – | – | – | – | – | – | – | – | -0.39 | – | 0.6 | 0.81 | 0.89 | 0.96 | 0.34 | 0.02 | 0.85 | Growth Rate (U2OS; 12 h, replicate number 1): 0.92; Growth Rate (Fibroblast; 0 h, replicate number 1): -1; Growth Rate (Fibroblast; 6 h, replicate number 2): -0.26; Growth Rate (Fibroblast; 12 h, replicate number 1): 0.77 |
| CC1(C)CCN(C(=O)C2CN(c3c4c(nc5ccnn35)CCNCC4)C2)C1.O=C(O)C(F)(F)F | 0.61 | -0.5 | 0.45 | 0.87 | 0.96 | – | – | – | – | – | – | – | 0.82 | – | 0.86 | 0.98 | 0.96 | 0.78 | – | – | – |
| CN(C)[C@H]1CCN(c2cc(C(F)(F)F)c(C#N)c(Nc3cccc(CCC(=O)O)c3)n2)C1.O=C(O)C(F)(F)F | 0.79 | 0.73 | 0.95 | 0.94 | – | 0.54 | 0.78 | – | 0.89 | – | 0.88 | – | 0.75 | 0.99 | 0.93 | – | 0.72 | 0.63 | 0.81 | 0.38 | Growth Rate (U2OS; 0 h, replicate number 1): 0.61; Growth Rate (Fibroblast; 6 h, replicate number 2): -0.53 |
| Cn1c(C(=O)N[C@@H](CO)c2ccc(C(=O)O)cc2)cc2cc(Cl)ccc21 | 0.28 | 0.78 | – | – | 0.96 | – | – | – | – | 0.92 | – | 0.3 | 0.49 | – | 0.69 | 1 | 0.68 | 0.58 | – | – | Growth Rate (U2OS; 0 h, replicate number 1): 0.76; Growth Rate (Fibroblast; 6 h, replicate number 2): -0.6 |
| Cl.Cl.N=C(N)NCCC[C@H](NC(=O)CC1(CC(=O)N2CCN(C3c4ccccc4NC(=O)c4ccccc43)CC2)CCCC1)C(=O)NCCn1c(=O)n(-c2ccccc2)n(-c2ccccc2)c1=O (stereo partly drawn) | -0.2 | 0.47 | – | – | – | 0.1 | 0.78 | 0.83 | 0.87 | 0.73 | 0.99 | 0.97 | – | 0.59 | – | 0.6 | – | 0.65 | 0.27 | 0.78 | Growth Rate (U2OS; 0 h, replicate number 1): 0.38; Growth Rate (U2OS; 12 h, replicate number 1): 0.69; Growth Rate (Fibroblast; 12 h, replicate number 1): 0.91 |
